Results published in US20230226005A1, “Methods of Treating, Ameliorating, Shortening Duration, and/or Reversing Symptoms and/or Complications of a Coronavirus Infection” (Yale University, priority 2020, published 2023).

Key:
COVID-19 infection [1] = assay: Phase IIa study: gastrointestinal-family symptom score; assay type: in vivo; details: for gastrointestinal-family symptoms, Fitzmaurice mixed effects model, Effect: Camostat vs Placebo
COVID-19 infection [2] = assay: Phase IIa study: eye-family symptom score; assay type: in vivo
COVID-19 = details: hospitalized COVID-19 patients; 200 mg po three times daily for 5 days; cited from earlier work
COVID-19 infection [3] = assay: Phase IIa study: chest/respiratory-family symptom score; assay type: in vivo

Question: What does the source list for `CN(C)C(=O)COC(=O)Cc1ccc(OC(=O)c2ccc(NC(=N)N)cc2)cc1` [camostat, 4-[[4-[(Aminoiminomethyl)amino]benzoyl]oxy]benzeneacetic acid 2-(dimethylamino)-2-oxoethyl ester]?
Answer: gastrointestinal-family symptoms, Fitzmaurice mixed effects model, Camostat (COVID-19 infection [1]; Day 0): 2.1 (0.2); gastrointestinal-family symptoms, Fitzmaurice mixed effects model, Camostat (COVID-19 infection [1]; Day 1): 2.4 (0.3); gastrointestinal-family symptoms, Fitzmaurice mixed effects model, Effect (COVID-19 infection [1]; Day 1): −0.4 (0.4); gastrointestinal-family symptoms, Fitzmaurice mixed effects model, Camostat (COVID-19 infection [1]; Day 2): 2 (0.3); gastrointestinal-family symptoms, Fitzmaurice mixed effects model, Effect (COVID-19 infection [1]; Day 2): −0.1 (0.4); gastrointestinal-family symptoms, Fitzmaurice mixed effects model, Camostat (COVID-19 infection [1]; Day 3): 1.6 (0.3); gastrointestinal-family symptoms, Fitzmaurice mixed effects model, Effect (COVID-19 infection [1]; Day 3): 0.1 (0.4); gastrointestinal-family symptoms, Fitzmaurice mixed effects model, Camostat (COVID-19 infection [1]; Day 4): 1 (0.3); gastrointestinal-family symptoms, Fitzmaurice mixed effects model, Effect (COVID-19 infection [1]; Day 4): 0.8 (0.4); gastrointestinal-family symptoms, Fitzmaurice mixed effects model, Camostat (COVID-19 infection [1]; Day 5): 0.9 (0.3); gastrointestinal-family symptoms, Fitzmaurice mixed effects model, Effect (COVID-19 infection [1]; Day 5): 0.5 (0.4); gastrointestinal-family symptoms, Fitzmaurice mixed effects model, Camostat (COVID-19 infection [1]; Day 6): 0.8 (0.3); gastrointestinal-family symptoms, Fitzmaurice mixed effects model, Effect (COVID-19 infection [1]; Day 6): 0.6 (0.4); gastrointestinal-family symptoms, Fitzmaurice mixed effects model, Camostat (COVID-19 infection [1]; Day 7): 0.7 (0.3); gastrointestinal-family symptoms, Fitzmaurice mixed effects model, Effect (COVID-19 infection [1]; Day 7): 0.4 (0.4); gastrointestinal-family symptoms, Fitzmaurice mixed effects model, Camostat (COVID-19 infection [1]; Day 8): 0.6 (0.3); gastrointestinal-family symptoms, Fitzmaurice mixed effects model, Effect (COVID-19 infection [1]; Day 8): 0.5 (0.4); gastrointestinal-family symptoms, Fitzmaurice mixed effects model, Camostat (COVID-19 infection [1]; Day 9): 0.5 (0.3); gastrointestinal-family symptoms, Fitzmaurice mixed effects model, Effect (COVID-19 infection [1]; Day 9): 0.5 (0.4); gastrointestinal-family symptoms, Fitzmaurice mixed effects model, Camostat (COVID-19 infection [1]; Day 10): 0.8 (0.3); gastrointestinal-family symptoms, Fitzmaurice mixed effects model, Effect (COVID-19 infection [1]; Day 10): 0.2 (0.4); gastrointestinal-family symptoms, Fitzmaurice mixed effects model, Camostat (COVID-19 infection [1]; Day 11): 0.5 (0.3); gastrointestinal-family symptoms, Fitzmaurice mixed effects model, Effect (COVID-19 infection [1]; Day 11): 0.2 (0.4); gastrointestinal-family symptoms, Fitzmaurice mixed effects model, Camostat (COVID-19 infection [1]; Day 12): 0.4 (0.3); gastrointestinal-family symptoms, Fitzmaurice mixed effects model, Effect (COVID-19 infection [1]; Day 12): 0.3 (0.4); gastrointestinal-family symptoms, Fitzmaurice mixed effects model, Camostat (COVID-19 infection [1]; Day 13): 0.5 (0.3); gastrointestinal-family symptoms, Fitzmaurice mixed effects model, Effect (COVID-19 infection [1]; Day 13): 0.1 (0.4); gastrointestinal-family symptoms, Fitzmaurice mixed effects model, Camostat (COVID-19 infection [1]; Day 14): 0.3 (0.3); gastrointestinal-family symptoms, Fitzmaurice mixed effects model, Effect (COVID-19 infection [1]; Day 14): 0.4 (0.4); eye-family symptom score, Fitzmaurice model, Camostat (COVID-19 infection [2]; day 0): 1.4 (0.2); eye-family symptom score, Fitzmaurice model, Camostat (COVID-19 infection [2]; day 1): 1.4 (0.2); eye-family symptom score, Fitzmaurice model, Effect (placebo vs camostat) (COVID-19 infection [2]; day 1): −0.3 (0.3); eye-family symptom score, Fitzmaurice model, Camostat (COVID-19 infection [2]; day 2): 1.2 (0.2); eye-family symptom score, Fitzmaurice model, Effect (placebo vs camostat) (COVID-19 infection [2]; day 2): −0.2 (0.3); eye-family symptom score, Fitzmaurice model, Camostat (COVID-19 infection [2]; day 3): 0.9 (0.2); eye-family symptom score, Fitzmaurice model, Effect (placebo vs camostat) (COVID-19 infection [2]; day 3): −0.2 (0.3); eye-family symptom score, Fitzmaurice model, Camostat (COVID-19 infection [2]; day 4): 0.5 (0.2); eye-family symptom score, Fitzmaurice model, Effect (placebo vs camostat) (COVID-19 infection [2]; day 4): 0.2 (0.3); eye-family symptom score, Fitzmaurice model, Camostat (COVID-19 infection [2]; day 5): 0.5 (0.2); eye-family symptom score, Fitzmaurice model, Effect (placebo vs camostat) (COVID-19 infection [2]; day 5): −0.2 (0.3); eye-family symptom score, Fitzmaurice model, Camostat (COVID-19 infection [2]; day 6): 0.2 (0.2); eye-family symptom score, Fitzmaurice model, Effect (placebo vs camostat) (COVID-19 infection [2]; day 6): 0.3 (0.3); eye-family symptom score, Fitzmaurice model, Camostat (COVID-19 infection [2]; day 7): 0.2 (0.2); eye-family symptom score, Fitzmaurice model, Effect (placebo vs camostat) (COVID-19 infection [2]; day 7): 0.3 (0.3); eye-family symptom score, Fitzmaurice model, Camostat (COVID-19 infection [2]; day 8): 0.1 (0.2); eye-family symptom score, Fitzmaurice model, Effect (placebo vs camostat) (COVID-19 infection [2]; day 8): 0.5 (0.3); eye-family symptom score, Fitzmaurice model, Camostat (COVID-19 infection [2]; day 9): 0.2 (0.2); eye-family symptom score, Fitzmaurice model, Effect (placebo vs camostat) (COVID-19 infection [2]; day 9): 0.4 (0.3); eye-family symptom score, Fitzmaurice model, Camostat (COVID-19 infection [2]; day 10): 0.2 (0.2); eye-family symptom score, Fitzmaurice model, Effect (placebo vs camostat) (COVID-19 infection [2]; day 10): 0.3 (0.3); eye-family symptom score, Fitzmaurice model, Camostat (COVID-19 infection [2]; day 11): 0 (0.2); eye-family symptom score, Fitzmaurice model, Effect (placebo vs camostat) (COVID-19 infection [2]; day 11): 0.4 (0.3); eye-family symptom score, Fitzmaurice model, Camostat (COVID-19 infection [2]; day 12): 0 (0.2); eye-family symptom score, Fitzmaurice model, Effect (placebo vs camostat) (COVID-19 infection [2]; day 12): 0.3 (0.3); eye-family symptom score, Fitzmaurice model, Camostat (COVID-19 infection [2]; day 13): 0.1 (0.2); eye-family symptom score, Fitzmaurice model, Effect (placebo vs camostat) (COVID-19 infection [2]; day 13): 0.1 (0.3); eye-family symptom score, Fitzmaurice model, Camostat (COVID-19 infection [2]; day 14): 0.2 (0.2); eye-family symptom score, Fitzmaurice model, Effect (placebo vs camostat) (COVID-19 infection [2]; day 14): 0.1 (0.3); adverse effects (COVID-19): adverse effects were not observed; effect on clinical severity (e.g. escalation to ICU admission) (COVID-19): did not have an observable effect; chest/respiratory-family symptom score, Fitzmaurice model, Camostat (COVID-19 infection [3]; day 0): 7.5 (0.7); chest/respiratory-family symptom score, Fitzmaurice model, Camostat (COVID-19 infection [3]; day 1): 7.7 (0.8); chest/respiratory-family symptom score, Fitzmaurice model, Effect (placebo vs camostat) (COVID-19 infection [3]; day 1): −0.1 (0.9); chest/respiratory-family symptom score, Fitzmaurice model, Camostat (COVID-19 infection [3]; day 2): 7.6 (0.8); chest/respiratory-family symptom score, Fitzmaurice model, Effect (placebo vs camostat) (COVID-19 infection [3]; day 2): −0.5 (0.9); chest/respiratory-family symptom score, Fitzmaurice model, Camostat (COVID-19 infection [3]; day 3): 7.5 (0.8); chest/respiratory-family symptom score, Fitzmaurice model, Effect (placebo vs camostat) (COVID-19 infection [3]; day 3): −0.4 (0.9); chest/respiratory-family symptom score, Fitzmaurice model, Camostat (COVID-19 infection [3]; day 4): 8 (0.8); chest/respiratory-family symptom score, Fitzmaurice model, Effect (placebo vs camostat) (COVID-19 infection [3]; day 4): −1.7 (0.9); chest/respiratory-family symptom score, Fitzmaurice model, Camostat (COVID-19 infection [3]; day 5): 7 (0.8); chest/respiratory-family symptom score, Fitzmaurice model, Effect (placebo vs camostat) (COVID-19 infection [3]; day 5): −0.8 (0.9); chest/respiratory-family symptom score, Fitzmaurice model, Camostat (COVID-19 infection [3]; day 6): 6.6 (0.8); chest/respiratory-family symptom score, Fitzmaurice model, Effect (placebo vs camostat) (COVID-19 infection [3]; day 6): −0.7 (0.9); chest/respiratory-family symptom score, Fitzmaurice model, Camostat (COVID-19 infection [3]; day 7): 6.2 (0.8)
